Measured values published in patent US9539298B2, “Lissencephaly therapeutic agent” (OSAKA CITY UNIVERSITY, priority 2010, dated 2017).

Columns and labels:
[1] = system: Lis1+/− cerebellar granule nerve cells; experiment: Migration capability of cerebellar granule nerve cells; assay type: cell-based, mouse; details: 200 μM, 18-24 hours, FIG. 5
Description: Cerebellum tissue fragments of LIS1 gene hetero-deficient and wild-type mice (3-7 days after birth) (10 mice for each group) were crushed by gentle pipetting, and treated with 0.025% trypsin (Gibco, 25200)/0.0013% DNaseI (Sigma, DN-25) at 37° C. for 20 minutes. After centrifugation, a BME culture solution (Gibco, 21010) containing 10% equine blood serum was added for washing, and the reaction was stopped. Thereafter, the reaction liquid was subjected to pipetting by adding a BME culture solution containing 0.0052% DNaseI/10% equine blood serum, and filtered with a cell mesh-strainer (diameter=70 μm; Becton Dickinson). […]
After the incubation, the aggregates were washed with a phosphate buffer (PBS), and immobilized by 4% paraformaldehyde (Wako, 162-16065) (at room temperature, for 15 minutes). […] Thereafter, the aggregates were repeatedly washed well with PBS, and carefully embedded using glycerol (Merck) for fluorescence microscope observation so as to avoid damage.
After careful observation using a confocal laser microscope (TCS-SP5, Leica), the migratory distance (μm) of the nerve cells from the marginal zone of the cerebellum granule cell aggregates was measured for each cell group. […] Further, an average migratory distance (μm) was calculated and expressed as average migratory distance (μm)±standard deviation. […]

[2] = system: LIS1 heterozygous mice (Lis1+/−) embryos; experiment: Apoptosis in mouse embryo brains (TUNEL staining); assay type: in vivo; details: 100 μg/g IP to pregnant mice on alternate days from E9.5, read at E15.5, FIG. 9
Description: A neo(−)129S-Pafah1b1^tm2Awb/J homozygous male mouse lacking neo gene was mated with five homozygous EII-Cre transgenic female mice (FVB/N-Tg (EIIa-cre) C5379Lmgd/J, The Jackson Laboratory) by raising them in the same mouse cage. In total, six sets of mouse cages were prepared for the mating experiment. Plug check (confirmation of mating) was carried out every morning between 7 and 10 am, thereby determining the gestation cycle. SNJ-1945 was dissolved in dimethyl sulfoxide (DMSO) at a concentration of 100 mg/ml, and intraperitoneally injected to the pregnant mice carrying LIS1 heterozygous mice (Lis1^+/−) and the pregnant mice carrying control mice (normal mouse embryos), so that the administration amount became 100 μg per gram of body weight on alternate days from Day 9.5 of the embryonic period (E9.5). On Day 15.5 of the embryonic period (E15.5), the pregnant mice were killed by cervical fracture, and the mouse embryos were removed and immobilized for 24 hours by 4% paraformaldehyde (Wako: 162-16065). After substitution with PBS, paraffin embedding was performed by a standard method. The tissue block was cut into 5 μm pieces. Each piece was adhered to an APS-coated slide glass. After deparaffinization, 20 μg/ml proteinase K/PBS treatment was conducted for 15 minutes at room temperature, and 3% H2O2/PBS treatment was performed for ten minutes at room temperature. […]

COCCOCCOC(=O)N[C@@H](CC(C)C)C(=O)N[C@@H](Cc1ccccc1)C(=O)C(=O)NC1CC1 [compound 17, ((1S)-1-((((1S)-1-Benzyl-2,3-dioxo-3-(cyclopropylamino)propyl)amino)carbonyl)-3-methylbutyl)carbamic acid 5-methoxy-3-oxapentyl ester]
migration capability of nerve cells [1]: the recovery of migration capability was observed | apoptosis in embryo brain (TUNEL) [2]: significantly reduced
